In US20230167142A1, “METHODS FOR THE MONO-AMIDATION OF PHOSPHATES AND PHOSPHONATES” (Board of Regents, The University of Texas System, priority 2020, published 2023):
pIC50: −log10 of the molar value. Where two headings read alike, the source gives them in different places.

Columns and labels:
Format in all cases: cell-based
[1] = test system: ENO1-rescued (D423 ENO1) glioma cells; assay: cells; settings: for activity in cell proliferation assay (FIG. 1): 5 days
Protocol: (§1) FIGS. 1A, 1B, 1C, and 1D show cell proliferation assays for enolase inhibitors HEX (1A), FLM37 (1B), CDP18 (1C), and VCY32 (1D) against (i) ENO1-deleted (D423), (ii) ENO1-rescued (D423 ENO1), and (iii) ENO1-wildtype (LN319) glioma cells. Cells were incubated with pro-drug inhibitor for 5 days. Then, cells were fixed and stained with crystal violet and quantified spectroscopically. Numerical labels indicate concentration of enolase inhibitor in nM.
(§2) FIGS. 2A, 2B, and 2C show plots of relative cell density (vertical axis) against concentration (horizontal axis, nM) of enolase inhibitors FLM37 (2A), CDP18 (2B), and VCY32 (2C) for (i) ENO1-deleted (D423), (ii) ENO1-rescued (D423 ENO1), and (iii) ENO1-wildtype (LN319) glioma cells.
(§3) See, Leonard et al. (2016) Nat. Chem. Biol. 12:1053-1058 and Satani et al. (2016) PLos One, 11:e0168739, each of which is incorporated by reference for all purposes. Then, cells were fixed and stained with crystal violet and quantified spectroscopically. Cell density as measured by crystal violet were plotted as a function of inhibitor.
(§4) FIGS. 1A, 1B, 1C, and 1D show representative cell proliferation assays for the compounds HEX (1A), FLM37 (1B), CDP18 (1C), and VCY32 (1D). For each compound, assays are run against (i) ENO1-deleted (D423), (ii) ENO1-rescued (D423 ENO1), and (iii) ENO1-wildtype (LN319) glioma cells.

[2] = test system: ENO1-deleted (D423) glioma cells; assay: Crystal violet cell proliferation assay, ENO1-deleted D423 cells; settings: for pIC50: Glioma cell
Protocol: as §1, §2
(§5) Numerical labels indicate concentration of enolase inhibitor in nM.
as §3, §4

[3] = test system: ENO1-wildtype (LN319) glioma cells; assay: Crystal violet cell proliferation assay, ENO1-wildtype LN319 cells; settings: for activity in cell proliferation assay (FIG. 1): 5 days
Protocol: as §1, §2, §5, §3, §4

[4] = Glioma cell, table of Formula V compounds, R6 = POM, read-out: IC50, D423 EN01 (ENO1 +/+)
[5] = Glioma cell, footnote, experiment with VCY32, read-out: IC50 in reference to respective POMHEX control
[6] = table of Formula V compounds, R6 = POM, read-out: IC50, D423 EN01 (ENO1 +/+)
[7] = ENO1-deleted (D423), read-out: IC50,D423 (ENO1−/−)
[8] = LN-319, ENO1-wildtype (LN319), read-out: IC50, LN319 (ENO1+/+)

Work on `CC(C)(C)C(=O)OCOP(=O)(NCc1ccc(F)cc1)C1CCCN(O)C1=O` (stereo not drawn) [VCY19, ((((4-fluorobenzyl)amino)(1-hydroxy-2-oxopiperidin-3-yl)phosphoryl)oxy)methyl pivalate] yielded a pIC50 [1, 4] of 6.89.
In the case of `CC(C)(C)C(=O)OCOP(=O)(NCc1cccc(F)c1)C1CCCN(O)C1=O` (stereo not drawn) [CDP12, ((((3-fluorobenzyl)amino)(1-hydroxy-2-oxopiperidin-3-yl)phosphoryl)oxy)methyl pivalate], the pIC50 [1, 4] was 6.99.
`CN(C)P(=O)(OCOC(=O)C(C)(C)C)C1CCCN(O)C1=O` (stereo not drawn) [CDP21, (((dimethylamino)(1-hydroxy-2-oxopiperidin-3-yl)phosphoryl)oxy)methyl pivalate] was tested, and the “selectivity for ENO1-deleted cells” value [2] was “selective for ENO1-deleted cells”, the pIC50 ([2]; 120 h) was 6.97 and the pIC50 ([2]; read-out: IC50,D423 (ENO1−/−)) was 6.97. For the same molecule, the pIC50 ([3]; LN-319, read-out: IC50, LN319 (ENO1+/+)) was 5.30, the pIC50 ([1]; Glioma cell, read-out: IC50, D423 EN01 (ENO1 +/+)) was 6.94 and the pIC50 ([1]; Glioma cell, read-out: IC50,D423 ENO1 (ENO1+/+)) was 5.66.
For `CC(C)(C)C(=O)OCOP(=O)(NCC1CC1)C1CCCN(O)C1=O` (stereo not drawn) [VCY32, ((((Cyclopropylmethyl)amino)(1-hydroxy-2-oxopiperidin-3-yl)phosphoryl)oxy)methyl pivalate], the “activity in cell proliferation assay (FIG. 1)” value (shortened to “activity … (FIG. 1)”) ([2]; ENO1-deleted (D423), 5 days) was “activity at the micromolar range or better”, the “activity … (FIG. 1)” value ([3]; ENO1-wildtype (LN319)) was “activity at the micromolar range or better” and the “activity … (FIG. 1)” value ([1]; ENO1-rescued (D423 ENO1)) was “activity at the micromolar range or better”. The pIC50 [1, 5] was 7.66 and the pIC50 [1, 4] was 7.66.
“((((3,4-difluornhenzyl)amino)(1-hydro:xy-2-oxopiperidin-3-yl)phosphoryl)oxy)methyl pivalate [CDP13]” showed a pIC50 [1, 6] of 7.07.
In the case of `CCCCCCCCCCCCNP(=O)(O)C1CCCN(O)C1=O` (stereo not drawn) [CDP22, N-dodecyl-P-(1-hydroxy-2-oxopiperidin-3-yl)phosphonamidic acid], the “level of inhibition of ENO1-deleted (D423) cells (FIG. 3), in words” value ([2]; ENO1-deleted (D423)) was “sub-micromolar levels”, the pIC50 [2, 7] was 7.24 and the “inhibition / activity in ENO1-wildtype (LN319) cells (FIG. 3)” value ([3]; ENO1-wildtype (LN319)) was “shows activity”. It also gave a pIC50 [3, 8] of 6.07 and a pIC50 ([3]; LN-319, text b400, read-out: IC50 values for ENO1-wildtype (LN319) glioma cells (i) (FIGS. 4A, 4B)) of 7.62.
For `CC(C)(C)C(=O)OCOP(=O)(OCOC(=O)C(C)(C)C)C1CCCN(O)C1=O` (stereo not drawn) [POMHEX, (((1-hydroxy-2-oxopiperidin-3-yl)phosphoryl)bis(oxy))bis(methylene) bis(2,2-dimethylpropanoate), reference compound], the pIC50 [1, 5] was 7.38, the pIC50 ([1]; Glioma cell, footnote, experiment with VCY34, read-out: IC50 in reference to respective POMHEX control) was 6.66 and the pIC50 [1, 4] was 7.76.
“((((2,4-difluorobenzyi)amino)(1-hydrnxy-2-oxopiperidin-3-yl)phosphoryl)oxy)methyl pivalate [CDP14]” showed a pIC50 [1, 6] of 7.10.
`CC(C)(C)C(=O)OCOP(=O)(NCc1ccccc1)C1CCCN(O)C1=O` (stereo not drawn) [FLM37, (((benzylamino)(1-hydroxy-2-oxopiperidin-3-yl)phosphoryl)oxy)methyl pivalate] was tested, and the “activity … (FIG. 1)” value ([2]; ENO1-deleted (D423), 5 days) was “activity at the micromolar range or better”, the “activity … (FIG. 1)” value ([3]; ENO1-wildtype (LN319)) was “activity at the micromolar range or better” and the “activity … (FIG. 1)” value ([1]; ENO1-rescued (D423 ENO1)) was “activity at the micromolar range or better”. The pIC50 [1, 4] was 6.61.
`CNP(=O)(OCOC(=O)C(C)(C)C)C1CCCN(O)C1=O` (stereo not drawn) [CDP23, (((1-hydroxy-2-oxopiperidin-3-yl)(methylamino)phosphoryl)oxy)methyl pivalate] was tested, and the “greater potency compared to CDP21” value [2] was “more than 2.5 fold”, the pIC50 ([2]; 120 h, D423 cells, 5 days incubation, crystal violet, read-out: IC50) was 7.40 and the pIC50 [2, 7] was 7.40. The “selectivity for ENO1-deleted cells” value ([2]; crystal violet cell proliferation assay, 5 days) was “selective for ENO1-deleted cells”, the pIC50 [3, 8] was 5.82 and the pIC50 ([1]; Glioma cell, ENO1-rescued (D423 ENO1), read-out: IC50,D423 ENO1 (ENO1+/+)) was 6.10. It also gave a pIC50 [1, 4] of 7.20.
Molecule `CC(C)(C)C(=O)OCOP(=O)(NCc1ccccn1)C1CCCN(O)C1=O` (stereo not drawn) [KY9, (((1-hydroxy-2-oxopiperidin-3-yl){(pyridin-2-ylmethyl)amino)phosphoryl)oxy)methyl pivalate] has a pIC50 [1, 4] of 7.02.
With “((((Cyclohexylmethyl)amino)(1-hydro:xy-2-oxopiperidin-3-yl)phosphoryl)oxy)methyl pivalate [CDP18]” the “activity … (FIG. 1)” value ([2]; ENO1-deleted (D423), 5 days) was “activity at the micromolar range or better”, the “activity … (FIG. 1)” value ([3]; ENO1-wildtype (LN319)) was “activity at the micromolar range or better” and the “activity … (FIG. 1)” value ([1]; ENO1-rescued (D423 ENO1)) was “activity at the micromolar range or better”. It also gave a pIC50 [1, 6] of 7.09.
